According to ChEMBL document CHEMBL4428102, “Discovery of an Orally Bioavailable Gonadotropin-Releasing Hormone Receptor Antagonist” (J Med Chem, 2016):
Active and inactive are the calls of the source. The rule behind the calls is not given here.

Columns and labels:
[1] = biological target: T1, Gonadotropin-releasing hormone receptor (Homo sapiens, UniProt P30968); experiment: Antagonist activity against human GnRH receptor expressed in HEK293 cells co-transfected with pGL4-NFAT promoter AP1-luc assessed as inhibition of 20 nM GnRH-induced NFAT activation pre-incubated for 1 hr before GnRH stimulation and measured after 6 hrs by luciferase reporter gene assay; type: cell-based
T1 sequence (P30968 whole entry): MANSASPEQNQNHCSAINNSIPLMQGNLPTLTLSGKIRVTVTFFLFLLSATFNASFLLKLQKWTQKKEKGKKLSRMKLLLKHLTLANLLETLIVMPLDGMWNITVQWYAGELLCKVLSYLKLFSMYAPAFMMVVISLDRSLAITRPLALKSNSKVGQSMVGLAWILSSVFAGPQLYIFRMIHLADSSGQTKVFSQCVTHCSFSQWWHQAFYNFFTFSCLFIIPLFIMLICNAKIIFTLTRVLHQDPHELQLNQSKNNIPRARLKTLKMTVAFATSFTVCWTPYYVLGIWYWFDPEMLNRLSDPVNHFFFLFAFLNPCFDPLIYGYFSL

[2] = biological target: T1, Gonadotropin-releasing hormone receptor; experiment: Displacement of [125I]D-Trp6-LHRH from human GnRH receptor expressed in CHO-K1 cell membranes incubated for 1 hr by competitive binding assay
CYP3A4 = CYP3A4 (Homo sapiens, UniProt P08684); experiment: Inhibition of human recombinant CYP3A4 expressed in baculosomes at 10 uM incubated for 30 mins using BOMR substrate by fluorescence based assay; type: ADME; conditions: probe BOMR
Chain of CYP3A4 (P08684 whole entry): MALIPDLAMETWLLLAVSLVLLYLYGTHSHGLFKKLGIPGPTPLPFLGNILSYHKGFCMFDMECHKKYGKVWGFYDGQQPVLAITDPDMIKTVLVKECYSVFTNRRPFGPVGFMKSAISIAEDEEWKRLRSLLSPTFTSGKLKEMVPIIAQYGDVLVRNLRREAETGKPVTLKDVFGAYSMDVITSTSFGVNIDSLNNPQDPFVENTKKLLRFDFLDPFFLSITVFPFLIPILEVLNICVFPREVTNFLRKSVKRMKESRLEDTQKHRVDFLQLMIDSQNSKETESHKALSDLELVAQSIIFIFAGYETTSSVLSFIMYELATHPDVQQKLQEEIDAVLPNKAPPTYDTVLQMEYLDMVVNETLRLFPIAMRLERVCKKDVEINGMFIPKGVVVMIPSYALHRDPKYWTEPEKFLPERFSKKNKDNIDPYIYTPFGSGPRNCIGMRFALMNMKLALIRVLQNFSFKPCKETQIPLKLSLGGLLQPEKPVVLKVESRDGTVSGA

[3] = biological target: T1, Gonadotropin-releasing hormone receptor; experiment: Antagonist activity against human GnRH receptor expressed in […] assessed as inhibition of LHRH-induced calcium flux by FLIPR assay; type: functional, cell-based
[4] = biological target: T2, Gonadotropin-releasing hormone receptor (Macaca mulatta, UniProt Q8SPZ1); experiment: Displacement of [125I]D-Trp6-LHRH from monkey GnRH receptor expressed in HEK293 cell membranes incubated for 1 hr by competitive binding assay
T2 sequence (Q8SPZ1 whole entry): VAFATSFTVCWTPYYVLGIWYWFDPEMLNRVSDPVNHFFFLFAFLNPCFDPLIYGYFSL

[5] = biological target: T1, Gonadotropin-releasing hormone receptor; experiment: Antagonist activity against human GnRH receptor expressed in HEK293 cells co-transfected with pGL4-NFAT promoter AP1-luc assessed as inhibition of 1 nM GnRH-induced NFAT activation pre-incubated for 1 hr before GnRH stimulation and measured after 6 hrs by luciferase reporter gene assay; type: cell-based
[6] = biological target: T3, Gonadotropin-releasing hormone receptor (Rattus norvegicus, UniProt P30969); experiment: Antagonist activity against rat GnRH receptor expressed in HEK293 cells co-transfected with pGL4-NFAT promoter AP1-luc assessed as inhibition of 1 nM GnRH-induced NFAT activation pre-incubated for 1 hr before GnRH stimulation and measured after 6 hrs by luciferase reporter gene assay; type: cell-based
T3 sequence (P30969 whole entry): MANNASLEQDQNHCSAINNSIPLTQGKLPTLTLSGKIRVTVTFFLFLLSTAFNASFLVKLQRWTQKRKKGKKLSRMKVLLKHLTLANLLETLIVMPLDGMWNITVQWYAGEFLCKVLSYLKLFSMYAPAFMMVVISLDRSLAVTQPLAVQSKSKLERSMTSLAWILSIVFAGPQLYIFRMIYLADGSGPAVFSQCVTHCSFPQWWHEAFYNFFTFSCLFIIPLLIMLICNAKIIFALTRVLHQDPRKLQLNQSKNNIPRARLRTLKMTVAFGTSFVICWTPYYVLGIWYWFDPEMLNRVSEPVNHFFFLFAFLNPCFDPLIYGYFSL

[7] = biological target: T3, Gonadotropin-releasing hormone receptor; experiment: Displacement of [125I]D-Trp6-LHRH from rat GnRH receptor expressed in HEK293 cell membranes incubated for 1 hr by competitive binding assay
[8] = biological target: T1, Gonadotropin-releasing hormone receptor; experiment: Antagonist activity against human GnRH receptor expressed in HEK293 cells assessed as reduction in ERK1/2 phosphorylation pre-incubated for 5 mins before LHRH stimulation for 5 mins by chemiluminescence based assay; type: cell-based
[9] = biological target: T2, Gonadotropin-releasing hormone receptor; experiment: Antagonist activity against monkey GnRH receptor expressed in HEK293 cells co-transfected with pGL4-NFAT promoter AP1-luc assessed as inhibition of 10 nM GnRH-induced NFAT activation pre-incubated for 1 hr before GnRH stimulation and measured after 6 hrs by luciferase reporter gene assay; type: cell-based
[10] = Tmax in castrated cynomolgus monkey at 10 mg/kg, po by mass spectrometry; type: ADME, organism-based, Macaca fascicularis; conditions: male, in vivo
[11] = AUC (infinity) in Sprague-Dawley rat at 10 mg/kg, po by mass spectrometry; type: ADME, organism-based; design: dose 10 mg/kg, route oral, time infinity; conditions: in vivo
[12] = Cmax in beagle dog at 10 mg/kg, po by mass spectrometry; type: ADME, organism-based, Canis lupus familiaris; design: dose 10 mg/kg, route oral; conditions: in vivo
Cynomolgus monkey [13] = experiment: Reduction in serum LH level in castrated male cynomolgus monkey at 30 mg/kg, po administered as single dose after 12 hrs by RIA method; type: functional; conditions: Macaca fascicularis
[14] = AUC (infinity) in beagle dog at 10 mg/kg, po by mass spectrometry; type: ADME, organism-based, Canis lupus familiaris; design: dose 10 mg/kg, time infinity, route oral; conditions: in vivo
Cynomolgus monkey [15] = experiment: Reduction in serum LH level in castrated male cynomolgus monkey at 30 mg/kg, po administered as single dose after 24 hrs by RIA method; type: functional; conditions: Macaca fascicularis
[16] = Cmax in Sprague-Dawley rat at 10 mg/kg, po by mass spectrometry; type: ADME, organism-based; design: dose 10 mg/kg, route oral; conditions: in vivo
[17] = Oral bioavailability in castrated cynomolgus monkey at 10 mg/kg by mass spectrometry; type: ADME, organism-based, Macaca fascicularis; conditions: male, in vivo
[18] = Half life in beagle dog at 10 mg/kg, po by mass spectrometry; type: ADME, organism-based, Canis lupus familiaris; conditions: in vivo
[19] = Tmax in Sprague-Dawley rat at 10 mg/kg, po by mass spectrometry; type: ADME, organism-based; conditions: in vivo
[20] = Oral bioavailability in beagle dog at 10 mg/kg by mass spectrometry; type: ADME, organism-based, Canis lupus familiaris; conditions: in vivo
[21] = Cmax in castrated cynomolgus monkey at 10 mg/kg, po by mass spectrometry; type: ADME, organism-based, Macaca fascicularis; design: dose 10 mg/kg, route oral; conditions: male, in vivo
[22] = AUC (infinity) in castrated cynomolgus monkey at 10 mg/kg, po by mass spectrometry; type: ADME, organism-based, Macaca fascicularis; design: dose 10 mg/kg, route oral, time infinity; conditions: male, in vivo
[23] = Oral bioavailability in Sprague-Dawley rat at 10 mg/kg by mass spectrometry; type: ADME, organism-based; conditions: in vivo
[24] = Cmax in castrated male cynomolgus monkey at 30 mg/kg, po administered as single dose; type: ADME, organism-based, Macaca fascicularis; design: dose 30 mg/kg, route oral; conditions: in vivo
[25] = Tmax in beagle dog at 10 mg/kg, po by mass spectrometry; type: ADME, organism-based, Canis lupus familiaris; conditions: in vivo
[26] = Half life in castrated cynomolgus monkey at 10 mg/kg, po by mass spectrometry; type: ADME, organism-based, Macaca fascicularis; conditions: male, in vivo
[27] = Half life in Sprague-Dawley rat at 10 mg/kg, po by mass spectrometry; type: ADME, organism-based; conditions: in vivo
[28] = AUC in castrated male cynomolgus monkey at 30 mg/kg, po administered as single dose; type: ADME, organism-based, Macaca fascicularis; conditions: in vivo
[29] = Selectivity index, ratio of IC50 for antagonist activity against rat GnRH receptor expressed in HEK293 cells to IC50 for antagonist activity against human GnRH receptor expressed in HEK293 cells; type: cell-based
Cynomolgus monkey [30] = experiment: Reduction in serum LH level in castrated male cynomolgus monkey at 30 mg/kg, po administered as single dose after 12 to 24 hrs by RIA method; type: functional, organism-based; conditions: Macaca fascicularis
[31] = Selectivity index, ratio of IC50 for antagonist activity against monkey GnRH receptor expressed in HEK293 cells to IC50 for antagonist activity against human GnRH receptor expressed in HEK293 cells; type: cell-based

Row | IC50 [1] [nM] | IC50 [2] [nM] | inhibition at 0.5 h, 10 µM (CYP3A4) [%] | Structure (SMILES) | other results
1 | 27.7 | 0.23 | 30 | Cc1c(N2CCN(Cc3cccc([N+](=O)[O-])c3)CC2)c(=O)n(C[C@H](N)c2ccccc2OCC(=O)O)c(=O)n1Cc1c(F)cccc1C(F)(F)F | –
2 | 12.6 | 0.95 | 96 | Cc1c(N2CCN(Cc3ccc(C(F)(F)F)o3)CC2)c(=O)n(C[C@H](N)c2ccccc2)c(=O)n1Cc1c(F)cccc1C(F)(F)F | –
3 | 122 | 1.1 | 45 | Cc1c(N2CCN(Cc3ccc(C(F)(F)F)o3)CC2)c(=O)n(C[C@H](NCCCS(=O)(=O)O)c2ccccc2)c(=O)n1Cc1c(F)cccc1C(F)(F)F | –
4 | 13 | 0.44 to 0.46 | 21 | Cc1c(N2CCN(Cc3ccc(C(F)(F)F)o3)CC2)c(=O)n(C[C@H](NCCCC(=O)O)c2ccccc2)c(=O)n1Cc1c(F)cccc1C(F)(F)F [listing 1 of 2 here] | IC50 [3]: 0.76 nM; IC50 [4]: 3.7 nM; IC50 [5]: 6.32 nM; IC50 [6]: 279 nM; IC50 [7]: 520 nM; IC50 [8]: 2.9 nM; IC50 [9]: 13.2 nM
5 | 411 | 1.2 | 16 | Cc1c(N2CCN(Cc3ccc(C(F)(F)F)o3)CC2)c(=O)n(C[C@H](NCCCP(=O)(O)O)c2ccccc2)c(=O)n1Cc1c(F)cccc1C(F)(F)F | –
6 | 146 | 1.2 | 72 | Cc1c(N2CCN(Cc3cccc(C(=O)NCCC(=O)O)c3)CC2)c(=O)n(C[C@H](N)c2ccccc2)c(=O)n1Cc1c(F)cccc1C(F)(F)F | –
7 | 102 to 155 | 0.45 | 89 | Cc1c(N2CCN(Cc3cccc([N+](=O)[O-])c3)CC2)c(=O)n(C[C@H](N)c2ccccc2)c(=O)n1Cc1c(F)cccc1C(F)(F)F | –
8 | 27.9 | 0.33 to 0.52 | 96 | Cc1c(N2CCN(Cc3cccc(C(F)(F)F)c3)CC2)c(=O)n(C[C@H](N)c2ccccc2)c(=O)n1Cc1c(F)cccc1C(F)(F)F | –
9 | 86.5 | 1.95 | 93 | Cc1c(N2CCN(Cc3cccc(C(N)=O)c3)CC2)c(=O)n(C[C@H](N)c2ccccc2)c(=O)n1Cc1c(F)cccc1C(F)(F)F | –
10 | 49.5 | 0.68 | 22 | Cc1c(N2CCN(Cc3cccc(C(F)(F)F)c3)CC2)c(=O)n(C[C@H](NCCCC(=O)O)c2ccccc2)c(=O)n1Cc1c(F)cccc1C(F)(F)F | –
11 | > 300 | > 10 | 74 | Cc1c(N2CCN(Cc3cccc(C(=O)NCC(=O)O)c3)CC2)c(=O)n(C[C@H](N)c2ccccc2)c(=O)n1Cc1c(F)cccc1C(F)(F)F | –
12 | 376 | 1.1 | 66 | Cc1c(N2CCN(Cc3cccc(C(=O)NCCCC(=O)O)c3)CC2)c(=O)n(C[C@H](N)c2ccccc2)c(=O)n1Cc1c(F)cccc1C(F)(F)F | –
13 | – | – | – | Cc1c(N2CCN(Cc3ccc(C(F)(F)F)o3)CC2)c(=O)n(C[C@H](NCCCC(=O)O)c2ccccc2)c(=O)n1Cc1c(F)cccc1C(F)(F)F.Cl | Tmax [10]: 1.7 h; AUC(0-inf) [11]: 1500 ng·h/mL; Cmax [12]: 2700 ng/mL; inhibition in vivo at 30 mg/kg (Cynomolgus monkey [13]): 84%; AUC(0-inf) [14]: 9600 ng·h/mL; inhibition in vivo at 30 mg/kg (Cynomolgus monkey [15]): 76%; Cmax [16]: 500 ng/mL; bioavailability [17]: 13.2%; half-life [18]: 1.7 h; Tmax [19]: 1.6 h; bioavailability [20]: 52.6%; Cmax [21]: 300 ng/mL; AUC(0-inf) [22]: 1300 ng·h/mL; bioavailability [23]: 15.6%; Cmax [24]: 5500 ng/mL; Tmax [25]: 1.3 h; half-life [26]: 3.5 h; half-life [27]: 1.9 h; AUC [28]: 37000 ng·h/mL
14 | 89.3 | 0.17 | 97 | Cc1c(N2CCN(Cc3cccc([N+](=O)[O-])c3)CC2)c(=O)n(C[C@H](N)c2ccccc2O)c(=O)n1Cc1c(F)cccc1C(F)(F)F | –
15 | 60 | 1.42 | 17 | Cc1c(N2CCN(Cc3cccc([N+](=O)[O-])c3)CC2)c(=O)n(C[C@H](NCCCC(=O)O)c2ccccc2)c(=O)n1Cc1c(F)cccc1C(F)(F)F | –
16 | – | – | – | Cc1c(N2CCN(Cc3ccc(C(F)(F)F)o3)CC2)c(=O)n(C[C@H](NCCCC(=O)O)c2ccccc2)c(=O)n1Cc1c(F)cccc1C(F)(F)F [listing 2 of 2 here] | Ratio IC50 [29]: 44; inhibition (Cynomolgus monkey [30]): Active; Ratio IC50 [31]: 2

Row | Structure (SMILES) | IC50 [1] [nM] | IC50 [2] [nM] | inhibition at 0.5 h, 10 µM (CYP3A4) [%] | other results
17 | CCOP(=O)(O)CCCN[C@@H](Cn1c(=O)c(N2CCN(Cc3ccc(C(F)(F)F)o3)CC2)c(C)n(Cc2c(F)cccc2C(F)(F)F)c1=O)c1ccccc1 | 184 | 1.8 | 45 | –
